Measured values as given in US8637467B2, “Pharmaceutical being used for treating cancer and fibrosis disease and the composition and uses thereof” (Wuxi MTLH Biotechnology Co., Ltd., priority 2008, dated 2014).

How the values were obtained:
[1] = tested on: Rat CC14 liver damage model; assay: Rat CC14 liver damage model (chronic liver fibrosis); type: in vivo, SD rat; parameters: Liver parameters: unit not given here; conditions: Gan-li-xin 25 mg/kg iv, once a day for 2 weeks from week 5
Method: To evaluate the protective effect of peptide SEQ ID NO:1 on liver damage, we used chronic liver fibrosis model (rat CC14 model) for efficacy evaluation.
Rat CC14 liver damage model
(1) Control group: saline, sc, 2 ml/kg, 10 rats
(2) model group: 40% CC14, sc, 2 ml/kg, 17 rats
(3) Gan-li-xin group: 25 mg/kg, iv, 10 ml/kg, 15 rats
(4) Prevention, high dose group: 50 μg peptide SEQ ID NO:1/kg, iv, 10 ml/kg, 17 rats
(5) Prevention, low dose group: 10 μg peptide SEQ ID NO:1/kg, iv, 10 ml/kg, 17 rats
(6) Treatment, high dose group: 100 μg peptide SEQ ID NO:1/kg, iv, 10 ml/kg, 17 rats
(7) Treatment, high dose group: 20 μg peptide SEQ ID NO:1/kg, iv, 10 ml/kg, 17 rats
Except for control group, inject 40% CC14 subcutaneously twice (Tuesday, and Friday) every week in Group (2) to (6), drug volume (0.2 ml/100 g, the first time 0.5 ml/100 g). CC14 Model construction is 6 weeks. Parallel to the model construction, inject intravenously peptide SEQ ID NO:1 at 50 μg/kg and 10 μg/kg in group (4) and (5), respectively, once a day for 6 weeks. For Group (3), (6), and (7), starting from week 5, inject Gan-li-xin 25 mg/kg, peptide SEQ ID NO:1 at 100 μg/kg and 20 μg/kg, respectively, once a day, continuously for 2 weeks.
All rats were weighed once a week during model construction and drug injection. According to weight, the dose of drugs is adjusted. 24 hours after the last time of CC14 injection, liver weight parameters were examined.
Blood was extracted from femoral artery and serum was separated. The following parameters were examined: serum alanine aminotransferase (ALT), aspartate aminotransferase (AST), Bilirubin (TB), Alkaline phosphatase (ALP), total protein (TP), albumin (ALB), globulin (G), albumin/globulin ratio (A/G), glucose (GLU), total cholesterol (TCH), triglyceride (TG).
Liver homogenate: to examine cholesterol (TCH), triglyceride (TG), alanine aminotransferase (ALT), and aspartate aminotransferase (AST).
[…], dry at 110 C, examine Hydroxyproline (HPA).
Part of the liver is fixed in formalin for histology examination.

[2] = tested on: human stomach cancer SGC-7901; assay: Human stomach cancer SGC-7901 xenograph nude mice; type: in vivo; conditions: positive control, 25 mg/kg, once a week, 3 weeks
Method: (§1) Experimental animals: Female BALB/cA nude mice, age 35-40 days, weight 18-22 g, provided by Shanghai Silaike Experimental Animal Co. Ltd., certificate number: SOCK (Shanghai) 2007-0005.
(§2) The tumor of xenograph nude mice grew to 100˜300 mm^3. Tumor mice were divided into different groups for drug testing. In the experiment below, there were 12 nude mice in negative control group, and 6 nude mice in the group with tested drug. Tumor diameter was measured three times each week, and mice weight was measured at the same time.
(§3) T/C (relative tumor inhibition rate) % was calculated as below: • (1) tumor volume, TV, calculated as below: TV=½×a×b^2 • A and b are length and width. • (2) relative tumor volume, RTV, calculated as below: RTV=TVt/TV0. • TV0 ? is tumor volume at the beginning of drug use (d0), TVt is tumor volume at later time point. • (3) relative tumor inhibition rate T/C (%), calculate as below:
(§4) [formula] TRTV: treatment group RTV; CRTV: negative control RTV
Peptide SEQ ID No:1 was given through tail vain (IV), at dosing of 1 mg/kg, 0.5 mg/kg, 0.25 mg/kg, 0.125 mg/kg, and 0.0625 mg/kg, 6 times a week. 5-FU was positive control, at dosing of 25 mg/kg, once a week. Negative control was given saline solution. The xenograph nude mice were treated for 3 weeks.

liver cancer (H22) = assay: Xenograph liver cancer nude mice model (H22); type: in vivo; conditions: H22, positive control, 10 mg/kg
Method: as §1, §2, §3, §4

[3] = tested on: human breast cancer MDA-MB-435; assay: Human breast cancer MDA-MB-435 xenograph nude mice; type: in vivo; conditions: positive control, 20 mg/kg, once a week, 4 weeks
Method: as §1, §2, §3, §4
Peptide SEQ ID No:1 was given through tail vein (IV), at dosing of 2 mg/kg, 1 mg/kg, 0.5 mg/kg, 6 times a week. Docetaxol was positive control, at dosing of 20 mg/kg, once a week. Negative control was given saline solution. The xenograph nude mice were treated for 4 weeks.

human lung cancer A549 = assay: Human lung cancer A549 xenograph nude mice; type: in vivo; conditions: positive control, 20 mg/kg, once a week, 3 weeks
Method: as §1, §2, §3, §4
Peptide SEQ ID No:1 was given through tail vein (IV), at dosing of 0.5 mg/kg, 0.25 mg/kg, and 0.125 mg/kg, 6 times a week. Docetaxol was positive control, at dosing of 20 mg/kg, once a week. Negative control was given saline solution. The xenograph nude mice were treated for 3 weeks.

CC1(C)[C@@H](O[C@H]2O[C@H](C(=O)O)[C@@H](O)[C@H](O)[C@H]2O[C@@H]2O[C@H](C(=O)O)[C@@H](O)[C@H](O)[C@H]2O)CC[C@]2(C)[C@H]3C(=O)C=C4[C@@H]5C[C@@](C)(C(=O)O)CC[C@]5(C)CC[C@@]4(C)[C@]3(C)CC[C@@H]12.N.N [Gan-li-xin, Diammonium glycyrrhizinate, reference compound]
ALB (albumin), serum [1]: 17.9 ± 2.5 g/L
ALP (alkaline phosphatase), serum [1]: 351.6 ± 134.1 IU/L
ALT (alanine aminotransferase), serum [1]: 73.6 ± 25 IU/L
AST (aspartate aminotransferase), serum [1]: 253.3 ± 69.3 IU/L
Bilirubin, serum [1]: 3.3 ± 0.6 µmol/L
GLU (glucose), serum [1]: 5.4 ± 0.7 mmol/L
Liver parameters [1]: 4.4 ± 0.6
Liver weight [1]: 11.6 ± 3.5 g
TCH (total cholesterol), serum [1]: 1.7 ± 0.5 mmol/L
TG (triglyceride), serum [1]: 0.7 ± 0.3 mmol/L
TP (total protein), serum [1]: 64.8 ± 5.4 g/L
hydroxyproline amount in rat liver [1]: 0.191 ± 0.038 ug/mg wet weight

O=c1[nH]cc(F)c(=O)[nH]1 [Peptide 5-FU, reference compound]
T/C(%) relative tumor inhibition rate [2]: 68.71%

CC(=O)O[C@H]1C(=O)[C@@]2(C)[C@H]([C@H](OC(=O)c3ccccc3)[C@]3(O)C[C@H](OC(=O)[C@H](O)[C@@H](NC(=O)c4ccccc4)c4ccccc4)C(C)=C1C3(C)C)[C@]1(OC(C)=O)CO[C@@H]1C[C@@H]2O [Taxol, reference compound]
inhibition rate, tumor (liver cancer (H22)): ~67.8%

CC(=O)O[C@@]12CO[C@@H]1C[C@H](O)[C@@]1(C)C(=O)[C@H](O)C3=C(C)[C@@H](OC(=O)[C@H](O)[C@@H](NC(=O)OC(C)(C)C)c4ccccc4)C[C@@](O)([C@@H](OC(=O)c4ccccc4)[C@H]21)C3(C)C [docetaxel, reference compound]
T/C(%) relative tumor inhibition rate [3]: 16.51%
T/C(%) relative tumor inhibition rate (human lung cancer A549): 18.60%
